Measurements taken from patent US9150585B2, “Analogs of camptothecin” (FL Therapeutics, LLC, priority 2012, dated 2015).
Blank lines part the entries; values can stand above or below the compound they belong to.

Columns and labels:
[1] = in presence of HSA; cited from earlier work
[2] = Persistence in plasma (incubation with human plasma, LC-MS/MS); type: in vitro ADME; details: for Peak Area Ratio (Analyte/IS) Human Plasma 0 min Replicate 1 / Peak Area Ratio (Analyte/IS) Human Plasma 0 min Replicate 2 / Peak Area Ratio (Analyte/IS) Human Plasma 60 min Replicate 1 / Peak Area Ratio (Analyte/IS) Human Plasma 60 min Replicate 2 / % Remaining after 1-hr Incubation at 37° C. in Human Plasma, Average / % Remaining after 1-hr Incubation at 37° C. in Human Plasma, Replicate 1 / % Remaining after 1-hr Incubation at 37° C. in Human Plasma, Replicate 2: 10 μM
Procedure: Test compounds and control (procaine) were incubated at a concentration of 10 μM with human plasma. The duplicate incubations, conducted in 96-well plates in a shaking water bath maintained at 37° C., were performed for 0 and 60 minutes and quenched by addition of acetonitrile.
After quenching by acetonitrile, the plates were capped, vortexed, and centrifuged at 3000 rpm for 10 minutes. The supernatant was injected into LC-MS/MS.
[formula] […] FL-001 and FL-003 are stable in human plasma, with a percent remaining of 127 and 89, respectively. Using the same protocol, the percent remaining of Camptothecin after 1-hr incubation in human plasma is 11%.

[3] = target: Human serum albumin (HSA) (Homo sapiens, UniProt P02768); assay: in vitro; details: isolated protein
Procedure: Equilibrium dialysis was performed in a 24-well BD Gentest Serum Binding System (BD Biosciences, Woburn, Mass.). Human serum albumin (HSA) at 0.6 mM was prepared by dissolving in phosphate buffered saline (PBS: 4.01 mL 1 M K2HPO4+0.99 mL 1 M KH2PO4+1.37 mL 5 M NaCl+43.63 mL water). After washing and soaking the 24-well BD Gentest Serum Binding System with water, 30% ethanol, and PBS, 750 μL of HSA and 250 μL of PBS were dispensed into each donor and receiver well, respectively. 3.75 μL of 1 mM test compound or wafarin (as control) was spiked into HSA in each donor well. The duplicate incubations were performed at 37° C. for 20 hrs.
After incubation, HSA and buffer samples collected from donor and receiver wells, together with calibration standard samples, were prepared in 96-well plates as shown in Table 5.
The plates were then capped, vortexed, and centrifuged at 3500 rpm for 10 minutes. The supernatant was injected into LC-MS/MS. Sample analysis was performed on an LC/MS/MS system composed of Shimadzu Prominence pumps, SIL-20ACHT autosampler, and Applied Biosystems/MDS Sciex API 3200.

[4] = cited from earlier work
[5] = human plasma, 37° C., replicate 1
[6] = human plasma, 37° C., replicate 2

Chain of Human serum albumin (HSA) (P02768 25-609): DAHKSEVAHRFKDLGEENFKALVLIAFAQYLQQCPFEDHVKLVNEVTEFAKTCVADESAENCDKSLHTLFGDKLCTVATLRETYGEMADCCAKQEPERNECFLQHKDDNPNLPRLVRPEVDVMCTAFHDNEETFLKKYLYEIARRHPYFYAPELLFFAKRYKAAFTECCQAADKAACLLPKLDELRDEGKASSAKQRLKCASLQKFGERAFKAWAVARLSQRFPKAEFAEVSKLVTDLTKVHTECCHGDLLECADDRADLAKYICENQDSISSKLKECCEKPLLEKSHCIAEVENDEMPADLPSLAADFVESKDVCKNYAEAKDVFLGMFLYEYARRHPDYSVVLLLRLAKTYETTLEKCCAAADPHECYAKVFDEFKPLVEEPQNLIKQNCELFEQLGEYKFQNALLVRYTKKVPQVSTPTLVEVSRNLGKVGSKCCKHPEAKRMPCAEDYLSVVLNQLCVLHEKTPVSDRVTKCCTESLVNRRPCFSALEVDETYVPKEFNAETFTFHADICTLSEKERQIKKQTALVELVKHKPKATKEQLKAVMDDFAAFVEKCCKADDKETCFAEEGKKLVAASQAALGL

Structure (SMILES): CC[C@@]1(O)C(=O)OCc2c1cc1n(c2=O)Cc2cc3c(N)cccc3nc2-1 [9-Aminocamptothecin]
equilibrium concentration of active (lactone) form in blood [1]: less than 0.5%

Structure (SMILES): CC[C@@]1(O)C(=O)OCc2c1cc1n(c2=O)Cc2cc3ccccc3nc2-1 [Camptothecin]
percent remaining after 1-hr incubation in human plasma ([2]; same protocol, human plasma, 1 hr): 11%

fraction unbound at 20 h, 5 μM [3]: < 0.001 | Peak Area Ratio (Analyte/IS) Human Plasma 0 min Replicate 1 [2, 5]: 1.47 | Peak Area Ratio (Analyte/IS) Human Plasma 0 min Replicate 2 [2, 6]: 1.75 | Peak Area Ratio (Analyte/IS) Human Plasma 60 min Replicate 1 [2, 5]: 1.96 | Peak Area Ratio (Analyte/IS) Human Plasma 60 min Replicate 2 [2, 6]: 2.13 | % Remaining after 1-hr Incubation at 37° C. in Human Plasma, Average ([2]; human, plasma, 1 h): 127% | % Remaining after 1-hr Incubation at 37° C. in Human Plasma, Replicate 1 ([2]; human, plasma, 1 h): 122% | % Remaining after 1-hr Incubation at 37° C. in Human Plasma, Replicate 2 ([2]; human, plasma, 1 h): 132%
Structure (SMILES): CCCCCCCCCCCCCCCCC(NC(=O)CCC(=O)O[C@]1(CC)C(=O)OCc2c1cc1n(c2=O)Cc2cc3ccccc3nc2-1)C(=O)O (stereo partly drawn) [FL-001]

Structure (SMILES): CCCCCCCCCCCCCCCCC(NC(=O)CCC(=O)O[C@]1(CC)C(=O)OCc2c1cc1n(c2=O)Cc2c-1nc1ccc(O)cc1c2CC)C(=O)O (stereo partly drawn) [FL-003]
fraction unbound at 20 h, 5 μM [3]: < 0.001 | Peak Area Ratio (Analyte/IS) Human Plasma 0 min Replicate 1 [2, 5]: 3.91 | Peak Area Ratio (Analyte/IS) Human Plasma 0 min Replicate 2 [2, 6]: 4.03 | Peak Area Ratio (Analyte/IS) Human Plasma 60 min Replicate 1 [2, 5]: 3.37 | Peak Area Ratio (Analyte/IS) Human Plasma 60 min Replicate 2 [2, 6]: 3.73 | % Remaining after 1-hr Incubation at 37° C. in Human Plasma, Average ([2]; human plasma, 37° C., 1 hr, average of duplicates): 89% | % Remaining after 1-hr Incubation at 37° C. in Human Plasma, Replicate 1 ([2]; human plasma, 37° C., 1 hr, replicate 1): 85% | % Remaining after 1-hr Incubation at 37° C. in Human Plasma, Replicate 2 ([2]; human plasma, 37° C., 1 hr, replicate 2): 94%

fraction unbound at 20 h, 5 μM [3]: < 0.002
Structure (SMILES): CCCCCCCCCCCCCCCCC(NC(=O)CCC(=O)O[C@]1(CC)C(=O)OCc2c1cc1n(c2=O)Cc2cc3c(CN(C)C)c(O)ccc3nc2-1)C(=O)O (stereo partly drawn) [FL-004]

fraction unbound at 20 h, 5 μM [3]: 0.015
Structure (SMILES): CCCCCCCCC(NC(=O)CCC(=O)O[C@]1(CC)C(=O)OCc2c1cc1n(c2=O)Cc2cc3c(CN(C)C)c(O)ccc3nc2-1)C(=O)O (stereo partly drawn) [FL-006]

Structure (SMILES): CCCCCCCCCCCCC(NC(=O)CCC(=O)O[C@]1(CC)C(=O)OCc2c1cc1n(c2=O)Cc2cc3c(CN(C)C)c(O)ccc3nc2-1)C(=O)O (stereo partly drawn) [FL-008]
fraction unbound at 20 h, 5 μM [3]: < 0.002

Structure (SMILES): CCCCCCCCCCCCCCCCC(NC(=O)CCCC(=O)O[C@]1(CC)C(=O)OCc2c1cc1n(c2=O)Cc2cc3c(CN(C)C)c(O)ccc3nc2-1)C(=O)O (stereo partly drawn) [FL-010]
fraction unbound at 20 h, 5 μM [3]: < 0.002

Structure (SMILES): CCCCCCCCCCCCCCCCC(NC(=O)C(CCCCN)NC(=O)CCC(=O)O[C@]1(CC)C(=O)OCc2c1cc1n(c2=O)Cc2cc3ccccc3nc2-1)C(=O)O (stereo partly drawn) [FL-013]
fraction unbound at 20 h, 5 μM [3]: < 0.001

Structure (SMILES): CCCCCCCCCCCCCCCC(=O)N(CCC(=O)O[C@]1(CC)C(=O)OCc2c1cc1n(c2=O)Cc2cc3ccccc3nc2-1)CC(=O)O [FL-015]
fraction unbound at 20 h, 5 μM [3]: < 0.001

Structure (SMILES): CCCCCCCCCCCCCCCC(=O)N[C@@H](CCC(=O)NCC(=O)O[C@]1(CC)C(=O)OCc2c1cc1n(c2=O)Cc2c-1nc1ccc(O)cc1c2CC)C(=O)O [FL-033]
fraction unbound at 20 h, 5 μM [3]: < 0.001

Structure (SMILES): CCN(CC)CCOC(=O)c1ccc(N)cc1 [Procaine, reference compound]
Peak Area Ratio (Analyte/IS) Human Plasma 0 min Replicate 1 [2, 5]: 0.60 | Peak Area Ratio (Analyte/IS) Human Plasma 0 min Replicate 2 [2, 6]: 1.21 | Peak Area Ratio (Analyte/IS) Human Plasma 60 min Replicate 1 [2, 5]: 0.00 | Peak Area Ratio (Analyte/IS) Human Plasma 60 min Replicate 2 [2, 6]: 0.11 | % Remaining after 1-hr Incubation at 37° C. in Human Plasma, Average ([2]; human, plasma, 1 h): 6% | % Remaining after 1-hr Incubation at 37° C. in Human Plasma, Replicate 1 ([2]; human, plasma, 1 h): 0% | % Remaining after 1-hr Incubation at 37° C. in Human Plasma, Replicate 2 ([2]; human, plasma, 1 h): 12%

Structure (SMILES): CC(=O)CC(c1ccccc1)c1c(O)c2ccccc2oc1=O (stereo not drawn) [Warfarin]
protein binding in human plasma (literature values) [4]: 98-100%
